Data: US5234935A, “N-alkylated 1,4-dihydropyridine-dicarboxylic acid esters” (Bayer Aktiengesellschaft, priority 1990, dated 1993)
pEC50, pIC50: −log10 of the molar value.

Experiments:
erythrocytes [1] = assay: Filtration of calcium-laden erythrocytes through 5 μm pores; assay type: cell-based; conditions: Erythrocyte, 0.5 h; filtration through 5 μm sieve pores; sheared in normal buffer 30 min; read-out: ED50 improvement in the flexibility compared to damage to control
Description: Test c) detects the filterability of calcium-laden erythrocytes through 5 μm pores (ED50, mol/l). In this test, the membrane flexibility plays a role under small force gradients.
Filtration of erythrocytes through 5 μm sieve pores is an established method for the determination of the deformability of erythrocytes. The cells are sheared in normal buffer for 30 min so that the calcium concentration increases intracellularly and the flexibility is reduced.

erythrocytes [2] = assay: Antihaemolytic action, calcium-laden erythrocytes under high shearing stress; assay type: cell-based; conditions: Erythrocyte; reduction of haemoglobin release from calcium-laden erythrocytes; read-out: ED50 of the antihaemolytic action
Source text: Test b) detects the antihaemolytic action of the substances (ED50, mol/l). In this test, calcium-laden erythrocytes are forced through small pores under high shearing stresses, so that haemoglobin is released as a result of their haemolysis and measured. The reduction in haemoglobin release is the measured quantity.
Normal erythrocytes become haemolytic under high shearing stresses. The haemolysis of calcium-laden cells is particularly pronounced. This measure of mechanical stability is used for substance characterization. The measured quantity is the concentration of free haemoglobin in the medium.

leukocyte adhesion = assay: Leukocyte adhesion in hamster cheek pouch model; assay type: in vivo; conditions: 0.1 mg/kg i.v.; for Leukocyte adhesion, Ischaemic, control = 100%: ischaemic (10 min circulation stop), small arterioles; for Leukocyte adhesion, Non-ischaemic, control = 100%: small venules
Description: The microcirculation can be directly observed in the hamster cheek pouch model. Measured quantities are leukocyte adhesion and also vessel diameter and erythrocyte velocity. The adhesion was quantified under ischaemic and non-ischaemic experimental conditions. Under non-ischaemic conditions, the adhesion is quantified in the area of small venules, under ischaemic conditions (10 min circulation stop) the adhesion is quantified in small arterioles. The results of the control experiments are given relative to 100%. 0.1 mg/kg i.v. is in each case chosen as the test dose, the results are decreases in % of the control.

erythrocytes [3] = assay: Calcium permeability of erythrocytes (45Ca) after ATPase blockade by Na ortho-vanadate; assay type: cell-based; conditions: Erythrocyte; inhibition of calcium influx (45Ca); Na ortho-vanadate 0.75 mM; read-out: ED50 of the inhibition
Description: Test a) measures the calcium permeability (^45 Ca) by blockade of the ATPases by Na ortho-vanadate. As a result, calcium can accumulate in the erythrocytes. A consequence is a reduced flexibility. ED50 values (mol/l) for the inhibition of calcium influx are given for test a).
After blockade of the membrane-immobilized ATPases by Na ortho-vanadate (0.75 mM), the calcium permeability is measured (^45 Ca method). Accumulation of calcium reduces the flexibility of the erythrocytes.

[4] = tested on: anaesthetized Wistar rats; assay: Blood pressure in anaesthetized Wistar rats after i.v. administration (carotid catheter); assay type: in vivo, rat
Description: (§1) The blood pressure neutrality is determined in the following models, which are typical for dihydropyridines: in SH rats after p.o. administration by measurement in the tail artery (Riva Rocci method) and in anaesthetized Wistar rats after i.v. administration (via a catheter inserted in the carotid artery). Blood-neutral compounds are designated as those which reduce the blood pressure by at most 20% of the starting value in both test models at the dose indicated. The difference between the therapeutic dose and the blood pressure action occurring is at least a factor of 10, as a rule a factor of ≥30, in particular ≥100.

SH rats = assay: Blood pressure in SH rats after p.o. administration (tail artery, Riva Rocci); assay type: in vivo, rat
Description: as §1

Row | pIC50 (erythrocytes [3]) | SMILES | pEC50 (erythrocytes [1]) | pEC50 (erythrocytes [2]) | Leukocyte adhesion, Ischaemic, control = 100% (leukocyte adhesion) [%] | Leukocyte adhesion, Non-ischaemic, control = 100% (leukocyte adhesion) [%] | Dose at which a blood pressure reduction occurs, i.v. [4] [mg/kg] | Dose at which a blood pressure reduction occurs, p.o. (SH rats) [mg/kg]
1 | – | CCOC(=O)C1=C(C)N(C)C(C)=C(C(=O)OCC)C1c1ccc(F)cc1 [Example 1, Diethyl 1,2,6-trimethyl-4-(4-fluorophenyl)-1,4-dihydropyridine-3,5-dicarboxylate] | 5.30 | – | – | – | – | –
2 | – | COC(=O)C1=C(C)N(C)C(C)=C(C(=O)OC)C1c1cccc(F)c1 [Example 2, Dimethyl 4-(3-fluorophenyl)-1,2,6-trimethyl-1,4-dihydropyridine-3,5-dicarboxylate] | – | 7.00 | – | – | – | –
3 | 5.30 | COC(=O)C1=C(C)N(C)C(C)=C(C(=O)OC)C1c1ccc(C(F)(F)F)cc1 [Example 3, Dimethyl 1,2,6-trimethyl-4-(4-trifluoromethylphenyl)-1,4-dihydro-pyridine-3,5-dicarboxylate] | 5.30 | – | 31 | 63 | > 10 | > 30
4 | – | CCCCOC(=O)C1=C(C)N(C)C(C)=C(C(=O)OCCCC)C1c1ccc([N+](=O)[O-])cc1 [Example 6, dibutyl 1,2,6-trimethyl-4-(4-nitrophenyl)-1,4-dihydropyridine-3,5-dicarboxylate] | – | – | 56 | 50 | > 10 | > 30
5 | – | COC(=O)C1=C(C)N(C)C(C)=C(C(=O)OC(C)C(C)C)C1c1ccc(C(F)(F)F)cc1 (centres unmarked) [Example 9, methyl 1,2-dimethylpropyl 1,2,6-trimethyl-4-(4-trifluoromethylphenyl)-1,4-dihydro-pyridine-3,5-dicarboxylate] | – | – | 36 | 70 | > 10 | > 30
6 | 5.30 | COC(=O)C1=C(C)N(C)C(C)=C(C(=O)OC)C1c1ccc(Br)cc1 [Example 13, dimethyl 1,2,6-trimethyl-4-(4-bromophenyl)-1,4-dihydropyridine-3,5-dicarboxylate] | – | 6.30 | – | – | – | –
7 | – | CCCOC(=O)C1=C(C)N(C)C(C)=C(C(=O)OCCC)C1c1ccc(C#N)cc1 [Example 15, dipropyl 1,2,6-trimethyl-4-(4-cyanophenyl)-1,4-dihydropyridine-3,5-dicarboxylate] | – | 5.30 | – | – | – | –
8 | – | COC(=O)C1=C(C)N(C2CC2)C(C)=C(C(=O)OC)C1c1ccc(C(F)(F)F)cc1 [Example 18, dimethyl 1-cyclopropyl-2,6-dimethyl-4-(4-trifluoromethylphenyl)-1,4-dihydro-pyridine-3,5-dicarboxylate] | – | – | 32 | 54 | > 10 | > 30
9 | – | CCOC(=O)C1=C(C)N(C2CC2)C(C)=C(C(=O)OCC)C1c1ccc(C(F)(F)F)cc1 [Example 19, diethyl 1-cyclopropyl-2,6-dimethyl-4-(4-trifluoromethylphenyl)-1,4-dihydro-pyridine-3,5-dicarboxylate] | – | – | 34 | 61 | > 10 | > 100
10 | 5.30 | COC(=O)C1=C(C)N(C)C(C)=C(C(=O)OC)C1c1ccc(C)c([N+](=O)[O-])c1 [Example 21, dimethyl 1,2,6-trimethyl-4-(4-methyl-3-nitrophenyl)-1,4-dihydro-pyridine-3,5-dicarboxylate] | – | 6.30 | – | – | – | –
11 | – | CCOC(=O)C1=C(C)N(C)C(C)=C(C(=O)OCC)C1c1ccc(C)c([N+](=O)[O-])c1 [Example 22, diethyl 1,2,6-trimethyl-4-(4-methyl-3-nitrophenyl)-1,4-dihydro-pyridine-3,5-dicarboxylate] | – | 6.30 | – | – | – | –
12 | – | COC(=O)C1=C(C)N(C)C(C)=C(C(=O)OC)C1c1ccc(Cl)c(C(F)(F)F)c1 [Example 26, dimethyl 1,2,6-trimethyl-4-(4-chloro-3-trifluoromethylphenyl)-1,4-dihydro-pyridine-3,5-dicarboxylate] | 5.30 | 7.52 | – | – | – | –
13 | 6.00 | COC(=O)C1=C(C)N(C)C(C)=C(C(=O)OC)C1c1ccc(C)c(C(F)(F)F)c1 [Example 27, dimethyl 1,2,6-trimethyl-4-(4-methyl-3-trifluoromethylphenyl)-1,4-dihydro-pyridine-3,5-dicarboxylate] | – | 7.30 | – | – | – | –
14 | – | COC(=O)C1=C(C)N(C)C(C)=C(C(=O)OC)C1c1ccc([N+](=O)[O-])c(O)c1 [Example 28, dimethyl 1,2,6-trimethyl-4-(3-hydroxy-4-nitrophenyl)-1,4-dihydro-pyridine-3,5-dicarboxylate] | 5.30 | – | – | – | – | –
